Experiments:
[1] = biological target: GABAA receptors (rat cerebral cortex P2 homogenate); assay: [35S]TBPS binding assay; settings: inhibition of [35S]TBPS binding
Procedure: The cerebral cortex from male Sprague-Dawley rats (weighing 160-200 g) was removed immediately after decapitation and dissected over ice. A P2 homogenate was prepared for binding assay as previously described (Gee, 1987a). The tissue was homogenized in 0.32 M sucrose (J. T. Baker Chemical Co., Phillipsburg, N.J.) with a Teflon-coated pestle, followed by centrifugation at 1,000×g for 10 min. The supernatant was collected and centrifuged at 9,000×g for 20 min. The resultant P2 pellet was resuspended in ice-cold 50 mM sodium potassium phosphate buffer (pH 7.4) containing 200 mM NaCl and used immediately in binding assays. A 2 nM concentration of [^35S]TBPS (86 Ci/mmol; New England Nuclear, Boston, Mass.) was incubated with 100 μL of tissue homogenate (10% w/v) in the presence or absence of 5 μM GABA (Sigma Chem. Co., St. Louis, Mo.) and 5 μL aliquots of test drug dissolved in dimethyl sulfoxide (Sigma Chem. Co.) (≦10 μL of solvent used in all assays). At the concentration (≦1%) used, dimethyl sulfoxide had no effect on specific [^35S]TBPS binding. […] Filter-bound radioactivity was quantified by liquid scintillation spectrophotometry. The data were evaluated by nonlinear regression (GraphPad, Inc., San Diego, Calif.) to obtain IC50 (concentration at which half-maximal inhibition of radioligand occurs) and Imax (maximum percent inhibition) values. […]

[2] = biological target: T1, human α1β1γ2 GABAA receptors (Homo sapiens, UniProt P14867+P18505); assay: Oocyte electrophysiology, modulation of EC10 GABA response; format: cell-based; settings: oocytes expressing human α1β1γ2 GABAA receptors; % modulation above EC10 GABA control
T1 construct: expressed in transfected cells
Procedure: Preparation, micro-injection and maintenance of oocytes was as previously described (Ng et al., Proc. Natl. Acad. Sci., 2007, 104, 8059). Individual oocytes were injected with 0.005-50 ng of each subunit mRNA as follows (ratio of subunits in parentheses): GABAA receptor subunit combinations (α1,2, or 3, β1,2, or 3, γ2L or δ): (5:1:1). Stage IV-V oocytes were plucked from ovary membranes, defolliculized with collagenase Type IA (Worthington's) for 45 min and rinsed 10 times with Ringer's salt solution. cRNA was injected at 50 nL. Oocytes were tested 3-28 days after injection (n=3-7 per compound), in Ringer's salt solution by linear drug application method using electrodes with […] tip resistance. Changes in membrane current were passed through a pre-amp, then through a T200 patch amplifier (Axon Instruments), with a bandpass filter 2 kHz. pClamp software was used to monitor, record, and analyze data. All compounds were tested with a 30 second pretreatment prior to co-application with EC10 (concentration of GABA that evokes 10% of the maximum response) GABA for the control response. Responses in presence of test compound were calculated as % modulation above control. Concentration-response curves were fit to non-linear regression analysis on Prism 4.0 (GraphPad, San Diego, Calif.) for % maximal stimulation and EC50. […]

[3] = system: pentylenetetrazole-induced seizures; assay: Anticonvulsant assay, protection from pentylenetetrazole-induced seizures; format: in vivo; settings: oral dosing in 20% 2-hydroxypropyl-β-cyclodextrin; dose protecting half the animals from seizures
Procedure: The ability of compounds to protect against pentylenetetrazole-induced seizures was carried out as described by Hogenkamp, et al. J. Med. Chem. 2007, 50, 3369. The dose that protected half the animals from seizures was determined as the ED50.

mice [4] = assay: Mouse elevated plus maze (EPM); format: in vivo; settings: dosed in 20% 2-hydroxypropyl-β-cyclodextrin
Procedure: Mouse Elevated Plus Maze (EPM)
Mice were group housed and handled daily for 3 days prior to testing in the EPM (Coulbourn Instruments). Testing was conducted in a dimly lit room, with two 60 W bulbs pointed at the ceiling near the open arms (4 ft. above the maze). The maze was cleaned between each run. Automated counting of time spent in the open arms of the maze was achieved by using Med Associates (St. Albans, Vt.) MedPC-IV program. Data were analyzed with GraphPad Prism 4.0 for statistical significance by one-way ANOVA with Dunnett's multiple comparison post-hoc test. Compounds that increase the amount of time the animals spend in the open arms have activity as anxiolytics.

mice [5] = assay: Mouse rotarod (RR); format: in vivo; settings: dosed in 20% 2-hydroxypropyl-β-cyclodextrin
Procedure: Naïve mice were trained on a RR (Columbus Instruments, Columbus, Ohio) in 4 sessions (6-15 rpm) over 2 days to successfully complete the 2-min trial prior to final testing (6 rpm). On day 3, the mice were administered compound and tested over a period of 360 min at various intervals. The percentage of animals remaining on the RR throughout each 2-min trial was recorded. The results that coincided with the time of peak effect were analyzed by the method of Litchfield and Wilcoxon (Litchfield and Wilcoxon, J. Pharmacol. Exp. Ther., 1949, 96, 99) to determine the AD50 (ataxic half-maximal dose where half of the mice fail the RR assay). Compounds that have activity in the rotarod assay can indicate CNS depressive activity and sedative activity.

T1 sequence (P14867 28-456): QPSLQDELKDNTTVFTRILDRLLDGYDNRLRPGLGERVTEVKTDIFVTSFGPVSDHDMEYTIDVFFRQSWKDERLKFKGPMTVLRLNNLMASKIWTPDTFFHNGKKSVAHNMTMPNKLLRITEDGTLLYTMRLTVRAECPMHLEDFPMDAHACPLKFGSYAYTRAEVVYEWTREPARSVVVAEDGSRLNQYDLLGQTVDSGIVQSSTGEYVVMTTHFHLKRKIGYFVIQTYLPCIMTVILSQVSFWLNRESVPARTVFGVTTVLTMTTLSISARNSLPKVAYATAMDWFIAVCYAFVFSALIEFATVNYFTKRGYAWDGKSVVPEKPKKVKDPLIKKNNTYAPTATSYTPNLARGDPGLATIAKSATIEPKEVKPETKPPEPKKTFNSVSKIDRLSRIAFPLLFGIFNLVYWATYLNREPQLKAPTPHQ
T1 sequence (P18505 26-474): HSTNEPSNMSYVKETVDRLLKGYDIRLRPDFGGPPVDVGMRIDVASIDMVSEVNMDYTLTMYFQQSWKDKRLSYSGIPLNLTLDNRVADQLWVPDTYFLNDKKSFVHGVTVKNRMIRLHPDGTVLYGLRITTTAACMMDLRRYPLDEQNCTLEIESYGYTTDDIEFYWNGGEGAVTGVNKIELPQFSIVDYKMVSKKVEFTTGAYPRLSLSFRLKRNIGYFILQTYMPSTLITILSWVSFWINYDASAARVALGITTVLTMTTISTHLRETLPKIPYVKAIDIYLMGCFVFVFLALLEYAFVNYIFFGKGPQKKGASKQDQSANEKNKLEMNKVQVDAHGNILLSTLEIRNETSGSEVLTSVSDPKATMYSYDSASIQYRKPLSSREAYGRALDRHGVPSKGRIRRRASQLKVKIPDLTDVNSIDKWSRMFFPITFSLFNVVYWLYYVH
T1 sequence (P18507 40-475 partner): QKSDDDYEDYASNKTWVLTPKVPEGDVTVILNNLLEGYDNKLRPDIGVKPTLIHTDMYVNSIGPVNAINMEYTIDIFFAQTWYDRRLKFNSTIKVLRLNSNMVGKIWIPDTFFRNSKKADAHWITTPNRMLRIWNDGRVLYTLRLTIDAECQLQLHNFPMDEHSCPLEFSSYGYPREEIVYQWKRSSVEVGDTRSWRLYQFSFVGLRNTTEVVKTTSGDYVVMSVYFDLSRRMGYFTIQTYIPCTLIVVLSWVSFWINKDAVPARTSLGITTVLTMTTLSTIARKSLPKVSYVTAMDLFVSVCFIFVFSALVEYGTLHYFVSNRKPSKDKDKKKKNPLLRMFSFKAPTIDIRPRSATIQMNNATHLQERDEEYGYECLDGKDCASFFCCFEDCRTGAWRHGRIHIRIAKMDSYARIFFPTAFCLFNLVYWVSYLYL

## C[C@@]1(O)CC[C@@]2(C)[C@@H](CC[C@@H]3[C@@H]2CC[C@]2(C)[C@@H](c4cn5ccccc5n4)CC[C@@H]32)C1 [2-[3α-Hydroxy-3β-methyl-5α-androstan-17β-yl]-imidazo[1,2-a]pyridine]
[1]
  IC50: 1 µM
  Imax (maximum percent inhibition): 100%

## C[C@@]1(O)CC[C@@]2(C)[C@@H](CC[C@@H]3[C@@H]2CC[C@]2(C)[C@@H](c4cc(CO)no4)CC[C@@H]32)C1
other
  melting point: 192 to 193 °C

## C[C@@]1(O)CC[C@@]2(C)[C@@H](CC[C@@H]3[C@@H]2CC[C@]2(C)[C@@H](c4ccno4)CC[C@@H]32)C1 [5-[3α-hydroxy-3β-methyl-5α-androstan-17β-yl]-isoxazole]
[2]
  maximum modulation: 400%

## C[C@@]1(O)CC[C@@]2(C)[C@@H](CC[C@@H]3[C@@H]2CC[C@]2(C)[C@@H](c4cc(CO)on4)CC[C@@H]32)C1 [3-[3α-hydroxy-3β-methyl-5α-androstan-17β-yl]-5-(hydroxymethyl)isoxazole]
[3]
  ED50: 4 mg/kg
other
  melting point: 198.5 to 200 °C
Mice [4]
  minimum effective oral dose: 1 mg/kg
Mice [5]
  oral AD50 (ataxic half-maximal dose): 43 mg/kg

— patent US20140148412A1, “NOVEL 17B-HETEROARYL-S[…] AS MODULATORS OF GABAA RECEPTORS” (THE REGENTS OF THE UNIVERSITY OF CLAIFORNIA, priority 2011, published 2014)
